# Experimental data reported in ChEMBL document CHEMBL3507680, “University of Dundee, Gates Library screen for HepG2 cell viability”.
# Experiment: Human HepG2 cell viability assay in 384 well format
# Format: toxicity, cell-based
# Design: dose 125 nL, time 70.5 hour; concentration not given beside the values
# Conditions: HepG2 cells, read-out: Inhibition
row,SMILES,cytotoxicity at 70.5 h [%]
1,c1ccc(-c2cc(CN3C[C@H]4CC[C@H]3C4)on2)cc1,-4.67
2,O=C(c1ccccn1)N1CCC(Oc2cccnc2)CC1,-8.37
3,Cc1cccc(-c2nc(N)nc3c2CN(C(=O)C2CCCC2)C3C)c1 (centres undefined),-18.6
4,Fc1ccc(CNCC2Cn3nncc3CO2)cc1 (centres undefined),-7.4
5,CCN(CC)C(=O)CCNC(=O)N1CCC(c2ccccc2)C1 (centres undefined),-6.27
6,CC(C)NC(=O)NC[C@H]1OC[C@@H](NCc2ccncc2)[C@@H]1O,-3.41
7,Cn1cccc1C(=O)N[C@@H]1CN(CC2CC2)[C@@H]2COC[C@@H]21,-5.94
8,CCOCC(=O)N1CCC(Oc2ccc(Cl)cn2)CC1,-4.45
9,O=C(Cn1cccc2cc(-c3ccc(F)cc3)nc1-2)N1CCC(O)CC1,3.41
10,NC(=O)C1CN(C(=O)Nc2ccccc2N2CCCCCC2)CCO1 (centres undefined),-17.5
11,Cc1nc(C(=O)N2CCC(c3cc(CCO)n(C)n3)C2)co1 (centres undefined),16.6
12,Cc1cc(CN2CCCC2Cn2cncn2)no1 (centres undefined),26.7
13,O=C(CCCn1cccn1)N1CCCC(n2cncn2)C1 (centres undefined),1.52
14,Cc1ccsc1C(=O)N1C[C@@H]2CN(Cc3ccoc3)CCO[C@@H]2C1,-1.7
15,COc1c(CNCc2ccc(C(=O)NC3CC3)cc2)c(C)nn1C,-3.83
16,CSCCC(Nc1nc(C)cc(C)n1)C(=O)NC(C)(C)CO (centres undefined),25.7
17,CCOC(=O)N1CCN(C(=O)c2snnc2-c2ccccc2)CC1,-9.63
18,Cc1ccc(-c2nnc(CN3CCOC(Cn4cccn4)C3)o2)cc1 (centres undefined),-7.48
19,CCc1ncc2c(n1)CN(Cc1nc(-c3cccs3)no1)CC2,-13
20,CN(C)C(=O)CCCn1ccc(NC(=O)NCc2cccc(F)c2)n1,-16.5
21,CC(C)N1CCC(NC(=O)NCc2ccccc2)CC1,-0.0959
22,COc1c(CC2CC(C(=O)O)=NO2)c(Br)c2c(c1OC)OCO2 (centres undefined),-7.83
23,Cc1ccc(CC(=O)N2CCN(c3nccs3)CC2)s1,14.7

row,SMILES,cytotoxicity at 70.5 h [%]
1,COc1cccc(CN2CC3(CCNCC3)CCC2=O)c1OC,0.619
2,Cc1ccc(Nc2nccc(C3CCN(C(=O)CO)C3)n2)nc1 (centres undefined),-11.2
3,CCCN1CCC(NC(=O)c2ccc(F)cc2I)CC1,-6.74
4,COCCN1CCC(c2nc3ccccc3[nH]2)CC1,-11
5,Cn1nc(CNC(=O)c2ccc3c(c2)OCO3)c2c1CCOC2,5.45
6,CC(=O)Nc1ccc(-c2cn(CCn3c(C)cc(C)nc3=O)nn2)cc1,-6.08
7,CCCC(=O)N(CC)C(c1cccnc1)c1ccc2c(c1)CCO2 (centres undefined),-4.67
8,O=C(Cc1cccnc1)N1CCCC2(CCN(C3CCOCC3)C2)C1 (centres undefined),9.18
9,COc1ccccc1CNC(=O)CNc1ccccc1C(C)=O,-1.58
10,CS(=O)(=O)N1CCC2(CC1)CC(NCc1ccco1)c1ccccc12 (centres undefined),-1.03
11,COC(=O)c1cccn1C1CCN(Cc2cnc3ccccn23)CC1,10.2
12,Cc1c(CNC2CCN(c3ccccc3OC(F)F)C2)cnn1C (centres undefined),-3.92
13,Cc1ccc(C(=O)N2CCc3ncnc(C)c3CC2)cn1,-4.87
14,O=C(Cc1cccs1)NCC1Cn2nnc(-c3ccoc3)c2CO1 (centres undefined),-5.7
15,CC(C)C(NC(=O)Cc1ccccc1)C(=O)NCc1ccc(O)nc1 (centres undefined),-11.4
16,O=C1COC2(CCN(Cc3cccnc3)CC2)CN1c1ccccc1,-8.85
17,CN1CCN(c2nc(O)c3c(-c4ccccn4)ccnc3n2)CC1,-3.01
18,COc1cccc2c(=O)n(C3CCNCC3)cnc12,-18.3
19,O=C1CCC(C(=O)N2CCOC(Cc3ccc(F)cc3)C2)=NN1 (centres undefined),-11.8
20,CS(=O)(=O)C1(C(=O)NC2CCc3nccn3C2)CCCC1 (centres undefined),-4.12
21,O=C(c1ccc(-c2cn[nH]c2)nc1)N1CCC(N2CCOCC2)CC1,-3.67
22,O=C(NCc1ccco1)[C@H]1CC[C@@H]2[C@@H](CCN2c2ncccn2)O1,12.4
23,Nc1nc2c(c(N3CCN(C(=O)c4cccs4)CC3)n1)CCCC2,-2.27

row,SMILES,cytotoxicity at 70.5 h [%]
1,Cc1ccc(=O)n(CC2(O)CCN(Cc3ccsc3)CC2)n1,-10.6
2,COc1cccc(S(=O)(=O)CCN2CCCCC2)c1,-15.7
3,CC(C)=CCN1CCC2(CC1)CC(=O)N(Cc1cc(F)cc(F)c1)C2,2.51
4,CC(C)c1ccc(C(N)c2cccs2)cc1 (centres undefined),-5.3
5,CN(C)C(=O)c1cccc(CN2CCOC(Cn3cccn3)C2)c1 (centres undefined),-12.9
6,CO[C@H]1CN(C(C)C)C[C@@H]1NC(=O)Nc1cccc(SC)c1,49.1
7,c1n[nH]cc1CCCN1CCC(OC2CCCCC2)CC1,0.00847
8,CCSCCC(=O)Nc1ncn(Cc2cccnc2)n1,-9.89
9,CCCS(=O)(=O)N1CCC2(CCN(Cc3cccc(F)c3)C2=O)C1 (centres undefined),36.3
10,O=C(CN1CCOC(Cn2cccn2)C1)Nc1ccncc1 (centres undefined),-3.63
11,Cc1nc(CN(C)C(=O)Nc2cccc(COC(C)C)c2)no1,-1.56
12,CC(C)Nc1nnc(SCc2nnc(C(C)(C)C)o2)s1,-6.2
13,c1ccc(OCC2C[C@@H]3[C@@H](C2)OCCN3CC2CCOCC2)nc1 (some centres undefined),-0.766
14,CC(C)c1nc(C2CCCN2C(=O)c2nccnc2N)no1 (centres undefined),-7.76
15,COc1ccc(-c2ccc(C(=O)N3CCOCC3CC(=O)O)o2)cc1 (centres undefined),-3.78
16,COCc1cc(O)nc(C2CCCN(Cc3cccc(OC)c3)C2)n1 (centres undefined),-1.68
17,Cc1nc(N2CCOc3ccc(CO)cc3C2)c2c(C)noc2n1,-2.39
18,COCCCC(=O)Nc1cc(Cl)c(Cl)cn1,24.5
19,Cc1cc(NCCC(=O)NC2CCCC2)nc(-c2ccncc2)n1,0.777
20,COCc1nnc(-c2cccc(C(=O)N(C(C)C)C3CCC3)c2)o1,-12.7
21,CCc1cnc(NCC(C)Oc2cccnc2)nc1 (centres undefined),-5.39
22,CCOC(=O)[C@]12CCCN(Cc3nccs3)C[C@H]1CN(C(C)C)C2,-3.32
23,N#Cc1ccc(N2CCC(c3nc(C(F)(F)F)c[nH]3)CC2)nc1,-11.5

row,SMILES,cytotoxicity at 70.5 h [%]
1,Cc1csc(N2CCN(Cc3cnc(C)s3)CC2C)n1 (centres undefined),-2.09
2,CC(C)c1noc(CCCC(=O)N2CCN(C)CC2c2ccccc2)n1 (centres undefined),-8.67
3,CN(Cc1ccccc1)c1ncccc1CNC1CCC1,-2.38
4,COc1nc(C)c(C(=O)N2CCC(C(O)Cc3ccccc3)CC2)s1 (centres undefined),-11.5
5,Cc1ccc(CN(C(=O)NCC2CCCO2)C2CC2)o1 (centres undefined),-9.69
6,Cc1ccc(N(CCC#N)C(=O)CCc2cscn2)cc1C,-3.27
7,CCOCCN1CCN(Cc2nnc(-c3occc3C)o2)CC1,9.82
8,CC(C)NC(=O)Nc1ccc(-c2nc(C(C)C)no2)cc1,-8.44
9,CC(C)NC(=O)CCNC(=O)Nc1cnn(-c2ccccc2F)c1,-0.437
10,O=c1n(CCSCc2ccccc2F)nc2ccccn12,-11.3
11,Cc1cccc(C)c1NC(=O)c1cc(S(N)(=O)=O)c(C)o1,20.8
12,CCCc1nncn1-c1cc(OC)ccc1OC,-1.39
13,Cc1cnn(CCNCc2nnc(C3CC3)o2)c1,11.6
14,Cc1nc(NC(=O)C(C)N(C)Cc2ccc3c(c2)OCO3)sc1C (centres undefined),-5.16
15,CCOCC(=O)NCC(Cc1cccc(F)c1)n1cccc1 (centres undefined),-1.33
16,Cc1nn(C)c(Cl)c1C(=O)NCc1cccnc1N1CCOCC1,-11.8
17,CCCS(=O)(=O)N1CCN(c2cc(-n3cccc3)nc(C)n2)CC1,-5.53
18,O=C(c1cnn(-c2ccccc2)c1)N1CCN(c2cnccn2)CC1,-15.3
19,O=C(NC1CC1)[C@@H]1CCO[C@@H]2CCN(CC3CCC3)C[C@@H]21,-11.4
20,Cc1noc(C)c1C(=O)N(C)C(C)c1ccncc1 (centres undefined),-5.68
21,Cc1ccc(CN2C[C@@H](C(=O)O)[C@H](c3ccccn3)C2)o1,17.9
22,CCc1nccn1C1CCCN(C(=O)CCOCC(F)(F)F)C1 (centres undefined),-14
23,O=C(c1c[nH]c(=O)c(Cl)c1)N1C[C@@H]2CC[C@H](C1)N(CC1CCC1)C2,19.9

row,SMILES,cytotoxicity at 70.5 h [%]
1,N#Cc1ccc(C(=O)O)nc1/C=C/c1cccc(Cl)c1,7.88
2,CN(C)Cc1nn(C)c2c1CCN(C(=O)c1cnccn1)C2,17.9
3,Cc1ccc(CNC(=O)CN2CCCCC2Cn2cncn2)s1 (centres undefined),-7.67
4,Cc1nc(C)n(CC2CCCN2c2ncnc3ccsc23)n1 (centres undefined),-5.53
5,CCc1ccc2nc(C)cc(C(=O)NCc3csc(N(C)C)n3)c2c1,16.3
6,CC(C)=CCN1C(=O)[C@H]2CC[C@@H]1CN(c1ncccc1C(N)=O)C2,-9.49
7,CC(=O)Nc1nc(C(=O)NCCOc2cccc(C)c2)cs1,-8.98
8,Cc1cc(CN2CCN(C(C)C(=O)NCc3cccs3)CC2)no1 (centres undefined),-2.27
9,CCN1CCN(S(=O)(=O)c2c[nH]c(C(C)C)n2)c2ccccc21,-5.4
10,CCn1cc(S(=O)(=O)N2CCCC2c2ccc(C)o2)cn1 (centres undefined),2.79
11,CCc1noc(C2CCCCN2C(=O)c2ccoc2C)n1 (centres undefined),9.18
12,CS(=O)(=O)C1CCN(S(=O)(=O)Cc2cccc(F)c2)CC1,0.12
13,CCc1noc(C2CCCCN2C(=O)c2cc(C)on2)n1 (centres undefined),-6.42
14,COC(=O)c1cccc(C(=O)N2CCN(c3cccc(C)c3C)CC2)n1,-14.1
15,Cc1ccc(C(=O)N2CCN3C[C@H](Oc4cncnc4)C[C@H]3C2)cn1,-0.158
16,CCNC(=O)N(C)C(c1cccc(F)c1)c1ccccn1 (centres undefined),-14
17,CC(=O)Nc1ccc(CN2CCc3[nH]cnc3C2c2nccn2C)cc1 (centres undefined),-3.14
18,CCc1nnc(C2Cc3ccccc3CN2Cc2ncc(Cl)n2C)o1 (centres undefined),-6.23
19,Cc1ncnc2c1CCN(Cc1nccs1)CC2,-5.22
20,CCCN1CCN(Cc2nc3ccccc3[nH]2)[C@H]2CS(=O)(=O)C[C@H]21,-3.06
21,Cc1nc(CC(=O)N2CCCC(N(C)Cc3ccccc3)C2)cs1 (centres undefined),1.48
22,CSCc1noc(CNC(=O)C2CCN(C(=O)C3CCCC3)CC2)n1,-10.6
